This series is described as follows: recombinant UMI read abundance after kanamycin selection (control-corrected) (log10(CPM+1)); higher = more efficient recombination; extreme values may be limits of the assay; sequences stand for … in AGTGCAGAGAAAATCGGCCAGTTTTCTCTGCCTGCAGTCCGCATGCCGTGGGACCCCTTGGGTTCTAACCTGTTGCCTAGATTTATGCAGCGGACTGCCTTTCTCCCAAAGTGATAAACCGG…AGGTTGGTTTCACT; site = the 11-nt donor. Here is the method:
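Pooled E. coli donor-specificity screen for the IS621 bridge recombinase. Each library member carries a reprogrammed 11-nt donor and a full-length LE bridge RNA expressed in cis from the natural promoter, with a paired donor-binding loop (8-nt LDG + 4-nt RDG) and a target-binding loop fixed to T5. It is co-electroporated with a T5 target plasmid; recombinase is induced with 0.07 mM IPTG and recombinants are selected on kanamycin. UMIs are counted as CPM, averaged over two biological replicates and corrected by the unselected control. Molecule = full bridge RNA written as DNA, built from the T5 scaffold: LDG = donor specificity nt 1-8, RDG = reverse complement of nt 8-11.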
On to “AACCTCTCATGGACCGGTTTTCCCGGTAATCCGTATTTGCC (site AACCTCTCTGG)”, for which the “recombinant UMI read abundance (log10)” value is 2.62.
For “AACGAGCCATGGACCGGTTTTCCCGGTAATCCGTATTTGGC (site AACGAGCCTGC)”, the “recombinant UMI read abundance (log10)” value came out at 0.
The figure for “AACGATCCATGGACCGGTTTTCCCGGTAATCCGTATTTGGC (site AACGATCCTGC)” is 1.07; for “AACGGCCCATGGACCGGTTTTCCCGGTAATCCGTATTTGTT (site AACGGCCCTAA)” it is 0; for “AACGGCCCATGGACCGGTTTTCCCGGTAATCCGTATTTGTT (site CACGGCCCTAA)” it is 0.071.
To “AACGGCCCATGGACCGGTTTTCCCGGTAATCCGTATTTGTT (site GACGGCCCTAA)” belongs 0.0173.
As to “AACGGCCCATGGACCGGTTTTCCCGGTAATCCGTATTTGTT (site TACGGCCCTAA)”, the “recombinant UMI read abundance (log10)” value stood at 0.00583.
Regarding “AACTAAGCATGGACCGGTTTTCCCGGTAATCCGTATTTGGT (site AACTAAGCTAC)”, the “recombinant UMI read abundance (log10)” value came out at 1.25.
For “AACTAGACATGGACCGGTTTTCCCGGTAATCCGTATTTGGG (site AACTAGACTCC)”, the “recombinant UMI read abundance (log10)” value amounted to 0.0148.
To “AACTAGACATGGACCGGTTTTCCCGGTAATCCGTATTTGGG (site ACCTAGACTCC)” belongs 0.0296; to “AACTAGACATGGACCGGTTTTCCCGGTAATCCGTATTTGGG (site AGCTAGACTCC)”, 0.0187; to “AACTAGACATGGACCGGTTTTCCCGGTAATCCGTATTTGGG (site ATCTAGACTCC)”, 0.0377.
Consider “AACTAGACATGGACCGGTTTTCCCGGTAATCCGTATTTGGT (site AACTAGACTAC)”, for which the “recombinant UMI read abundance (log10)” value was found to be 0.776.
Regarding “AACTATTCATGGACCGGTTTTCCCGGTAATCCGTATTTGTC (site AACTATTCTGA)”, the “recombinant UMI read abundance (log10)” value came out at 0.671.
In the case of “AACTCTACATGGACCGGTTTTCCCGGTAATCCGTATTTGAT (site AACTCTACTAT)”, the “recombinant UMI read abundance (log10)” value was found to be 0.82.
To “AACTGTCCATGGACCGGTTTTCCCGGTAATCCGTATTTGAT (site AACAGTCCTAT)” belongs 0.00914; to “AACTGTCCATGGACCGGTTTTCCCGGTAATCCGTATTTGAT (site AACCGTCCTAT)”, 0.423; to “AACTGTCCATGGACCGGTTTTCCCGGTAATCCGTATTTGAT (site AACGGTCCTAT)”, 0.0127.
For “AACTGTCCATGGACCGGTTTTCCCGGTAATCCGTATTTGAT (site AACTGTCCTAT)”, the “recombinant UMI read abundance (log10)” value came to 0.173.
Consider “AAGAACACATGGACCGGTTTTCCCGGTAATCCGTATTTGAT (site AAGAACACTAT)”, for which the “recombinant UMI read abundance (log10)” value amounted to 2.22.
As for “AAGAAGACATGGACCGGTTTTCCCGGTAATCCGTATTTGCA (site AAGAAGACTTG)”, the “recombinant UMI read abundance (log10)” value amounted to 2.73.
To “AAGAAGACATGGACCGGTTTTCCCGGTAATCCGTATTTGCA (site ACGAAGACTTG)” belongs 1.66; to “AAGAAGACATGGACCGGTTTTCCCGGTAATCCGTATTTGCA (site AGGAAGACTTG)”, 2.2; to “AAGAAGACATGGACCGGTTTTCCCGGTAATCCGTATTTGCA (site ATGAAGACTTG)”, 1.95.
With “AAGAATACATGGACCGGTTTTCCCGGTAATCCGTATTTGCA (site AAGAATACTTG)”, the “recombinant UMI read abundance (log10)” value came to 1.67.
Regarding “AAGAATACATGGACCGGTTTTCCCGGTAATCCGTATTTGCA (site CAGAATACTTG)”, the “recombinant UMI read abundance (log10)” value came out at 1.37.
Take “AAGAATACATGGACCGGTTTTCCCGGTAATCCGTATTTGCA (site GAGAATACTTG)”: the “recombinant UMI read abundance (log10)” value was 0.
With “AAGAATACATGGACCGGTTTTCCCGGTAATCCGTATTTGCA (site TAGAATACTTG)”, the “recombinant UMI read abundance (log10)” value is 1.7.
The figure for “AAGACGCCATGGACCGGTTTTCCCGGTAATCCGTATTTGAT (site AAGACGCCTAT)” is 0.386; for “AAGACTACATGGACCGGTTTTCCCGGTAATCCGTATTTGAC (site AAGACTACTGT)” it is 2.69.
The figure for “AAGACTACATGGACCGGTTTTCCCGGTAATCCGTATTTGAC (site ACGACTACTGT)” is 0.383.
With “AAGACTACATGGACCGGTTTTCCCGGTAATCCGTATTTGAC (site AGGACTACTGT)”, the “recombinant UMI read abundance (log10)” value amounted to 1.33.
For “AAGACTACATGGACCGGTTTTCCCGGTAATCCGTATTTGAC (site ATGACTACTGT)”, the “recombinant UMI read abundance (log10)” value was determined as 1.25.
For the sequence “AAGATTTCATGGACCGGTTTTCCCGGTAATCCGTATTTGGA (site AAGATTTCTTC)”, the “recombinant UMI read abundance (log10)” value was 2.1.
Take “AAGCACGCATGGACCGGTTTTCCCGGTAATCCGTATTTGTG (site AAGCACGCTCA)”: the “recombinant UMI read abundance (log10)” value is 1.42.
For the sequence “AAGCACGCATGGACCGGTTTTCCCGGTAATCCGTATTTGTG (site AAGCACGCTCC)”, the “recombinant UMI read abundance (log10)” value is 0.
As to “AAGCACGCATGGACCGGTTTTCCCGGTAATCCGTATTTGTG (site AAGCACGCTCG)”, the “recombinant UMI read abundance (log10)” value was found to be 1.22.
To “AAGCACGCATGGACCGGTTTTCCCGGTAATCCGTATTTGTG (site AAGCACGCTCT)” belongs 0.906.
To “AAGCAGGCATGGACCGGTTTTCCCGGTAATCCGTATTTGGG (site AAGCAAGCTCC)” belongs 0.00504.
Turning to “AAGCAGGCATGGACCGGTTTTCCCGGTAATCCGTATTTGGG (site AAGCACGCTCC)”, the “recombinant UMI read abundance (log10)” value came out at 0.0214.
Turning to “AAGCAGGCATGGACCGGTTTTCCCGGTAATCCGTATTTGGG (site AAGCAGGCTCC)”, the “recombinant UMI read abundance (log10)” value came out at 0.367.
In the case of “AAGCAGGCATGGACCGGTTTTCCCGGTAATCCGTATTTGGG (site AAGCATGCTCC)”, the “recombinant UMI read abundance (log10)” value was found to be 0.00333.
“AAGCCAGCATGGACCGGTTTTCCCGGTAATCCGTATTTGGG (site AAGCCAGCTCC)”: the “recombinant UMI read abundance (log10)” value stood at 0.00996.
In the case of “AAGCGGGCATGGACCGGTTTTCCCGGTAATCCGTATTTGAC (site AAGCGGGCTGT)”, the “recombinant UMI read abundance (log10)” value stood at 1.62.
In the case of “AAGCTGTCATGGACCGGTTTTCCCGGTAATCCGTATTTGAT (site AAGCTGTCTAT)”, the “recombinant UMI read abundance (log10)” value stood at 0.353.
As for “AAGGACACATGGACCGGTTTTCCCGGTAATCCGTATTTGAG (site AAGGACACTCT)”, the “recombinant UMI read abundance (log10)” value amounted to 2.09.
Regarding “AAGGACGCATGGACCGGTTTTCCCGGTAATCCGTATTTGGG (site AAGAACGCTCC)”, the “recombinant UMI read abundance (log10)” value came to 0.307.
For “AAGGACGCATGGACCGGTTTTCCCGGTAATCCGTATTTGGG (site AAGCACGCTCC)”, the “recombinant UMI read abundance (log10)” value was found to be 0.0166.
As for “AAGGACGCATGGACCGGTTTTCCCGGTAATCCGTATTTGGG (site AAGGACGCTCC)”, the “recombinant UMI read abundance (log10)” value is 0.789.
On to “AAGGACGCATGGACCGGTTTTCCCGGTAATCCGTATTTGGG (site AAGTACGCTCC)”, for which the “recombinant UMI read abundance (log10)” value was 0.0226.
With “AAGGATCCATGGACCGGTTTTCCCGGTAATCCGTATTTGGT (site AAGGATCCTAC)”, the “recombinant UMI read abundance (log10)” value turned out to be 0.373.
With “AAGGGTCCATGGACCGGTTTTCCCGGTAATCCGTATTTGAT (site AAGGGTCCTAT)”, the “recombinant UMI read abundance (log10)” value worked out at 0.0248.
Turning to “AAGGTCACATGGACCGGTTTTCCCGGTAATCCGTATTTGAG (site AAGGTCACTCT)”, the “recombinant UMI read abundance (log10)” value worked out at 1.55.
Take “AAGGTCACATGGACCGGTTTTCCCGGTAATCCGTATTTGGA (site AAGGTCACTTC)”: the “recombinant UMI read abundance (log10)” value is 1.14.
The figure for “AAGGTGTCATGGACCGGTTTTCCCGGTAATCCGTATTTGAC (site AAAGTGTCTGT)” is 1.13; for “AAGGTGTCATGGACCGGTTTTCCCGGTAATCCGTATTTGAC (site AACGTGTCTGT)” it is 0.678; for “AAGGTGTCATGGACCGGTTTTCCCGGTAATCCGTATTTGAC (site AAGGTGTCTGT)” it is 3.31.
The figure for “AAGGTGTCATGGACCGGTTTTCCCGGTAATCCGTATTTGAC (site AATGTGTCTGT)” is 0.
On to “AAGTAATCATGGACCGGTTTTCCCGGTAATCCGTATTTGAG (site AAGTAATCTCT)”, for which the “recombinant UMI read abundance (log10)” value was 2.78.
As for “AAGTAGGCATGGACCGGTTTTCCCGGTAATCCGTATTTGGC (site AAGTAGGCTGC)”, the “recombinant UMI read abundance (log10)” value stood at 2.2.
The figure for “AAGTAGGCATGGACCGGTTTTCCCGGTAATCCGTATTTGGC (site ACGTAGGCTGC)” is 1.04.
For the sequence “AAGTAGGCATGGACCGGTTTTCCCGGTAATCCGTATTTGGC (site AGGTAGGCTGC)”, the “recombinant UMI read abundance (log10)” value came out at 0.265.
In the case of “AAGTAGGCATGGACCGGTTTTCCCGGTAATCCGTATTTGGC (site ATGTAGGCTGC)”, the “recombinant UMI read abundance (log10)” value is 1.41.
For the sequence “AAGTCGCCATGGACCGGTTTTCCCGGTAATCCGTATTTGAC (site AAGTCGCCTGT)”, the “recombinant UMI read abundance (log10)” value is 0.
As for “AAGTGCACATGGACCGGTTTTCCCGGTAATCCGTATTTGGT (site AAGTGCACTAC)”, the “recombinant UMI read abundance (log10)” value amounted to 0.762.

(Values after the supplement of paper PMC11208160.)
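Further: IS621 bridge recombinase in Escherichia coli cells against a fixed T5 target plasmid.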
